Results as given in patent publication US9504676B2, “Molecules inhibiting a metabolic pathway involving the Syk protein tyrosine kinase and method for identifying said molecules” (CENTRE NATIONAL DE LA RECHERCHE SCIENTIFIQUE, priority 2008, dated 2016).

Test system: BMMC cells
Assay: C-13 toxicity test on BMMC cells (Annexin-V and Propidium Iodide)
Assay type: cell-based
Conditions: mouse
Procedure: FIG. 10. Toxicity test of C-13 on BMMC cells. The BMMC cells were incubated at 37° C. in the presence of 2.5 μM or 5 μM of C-13, 0.25% DMF or Staurosporine. The percentages of live BMMC cells after 3 hours and after 5 days were detected by means of double Annexin-V and Propidium Iodide labelling. The viability of BMMC cells incubated in the presence of 2.5 μM or 5 μM of C-13 or 0.25% DMF was not affected to noteworthy degree after 3 hours (78%, 74% and 79% respectively) or five days (62, 56 and 57%, respectively). On the other hand, the viability of BMMC cells treated under the same conditions with Staurosporine was reduced to a level of 16% after only 3 hours.
• 1) Chemical products and antibodies. A chemical bank of 3000 molecules (a varied subset) was acquired from ChemBridge, Inc. (San Diego, Calif.). Stocks of solutions of small molecules were prepared at a rate of 10 mM in DMSO (dimethylsulphoxide), except for C-13 (methyl 2-{5-[(3-benzyl-4-oxo-2-thioxo-1,3-thiazolidin-5-ylidene)methyl]-2-furyl}benzoate, ChemBridge ID No. 6197026) prepared in DMF (dimethylformamide). Unless specified otherwise, all the reagents were supplied by Sigma. Dinitrophenyl (DNP) hapten was acquired from Calbiochem. Sepharose GammaBind G and all the secondary antibodies were supplied by GE Health Amersham Biosciences. The anti-Syk, anti-Lyn, anti-Btk, anti-PLC-γ1, anti-PLC-γ2, anti-LAT, anti-SLP-76, anti-p38, anti-JNK, anti-Vav, anti-Akt1 and 9E10 antibodies conjugated with HRP were acquired from Santa Cruz Biotechnology. The anti-phospho-p44/42 MAP Kinase, anti-p44/42 MAP Kinase, anti-phospho-p38, anti-phospho-JNK, anti-phospho-Akt1 antibodies were acquired from Cell Signaling. The anti-phospho-LAT and anti-phospho-PLC-γ1 antibodies were supplied by Biosource and the anti-phospho-SLP-76 antibodies by BD Pharmingen. The 4G10 anti-phosphotyrosine monoclonal antibody was acquired from Upstate Biotechnology. • 2) ADA method: ELISA type high-speed molecule screening test, based on antibody displacement (WO 2005106481). The recombinant fusion protein GST:Syk 6-242^8 comprising the residues 6 to 242 of murine Syk tyrosine kinase protein illustrated in FIG. 8B (SEQ ID No. 4) was immobilised on an ELISA plate at a final concentration of 10 μg ml^−1. For the screening of the chemical molecule bank, the small molecules, diluted in PBS at a final concentration of 10 μM were added to the wells for one hour at ambient temperature, before adding the fragment scFv G4G11 at a final concentration of 100 nM for an additional hour. The binding of G4G11 with Syk was assessed by adding the 9E10 monoclonal antibody conjugated with HRP detecting the amino acid sequence EQKLISEEDLN of human c-myc protein located at the C-terminal end of the scFv fragment. To generate Syk mutants, targeted mutagenesis was used on GST:Syk 6-242 protein and the binding of G4G11 with the mutants was assessed in the presence of 5 μM of C-13. • 3) Cells, culture conditions and functional tests. Anti-DNP 2682-I mouse monoclonal antibody was used as the culture supernatant of hybridomas containing 1 μg/ml of IgE. Femoral bone marrow cells were sampled and cultured in Opti-MEM medium (Gibco) supplemented with 10% foetal calf serum and 4% X63 transfectant supernatant secreting murine IL-3. RBL-2H3 (ATCC) leukaemic rat basophil cells were maintained in a single-layer culture in RPMI 1640 medium supplemented with 10% foetal calf serum (Gibco). […]

With `COC(=O)c1ccccc1-c1ccc(/C=C2/SC(=S)N(Cc3ccccc3)C2=O)o1` [Molecule C-13, methyl 2-{5-[(3-benzyl-4-oxo-2-thioxo-1,3-thiazolidin-5-ylidene)methyl]-2-furyl}benzoate] the “percentage of live BMMC cells” value (3 h, 2.5 μM) was 78%, the “percentage of live BMMC cells” value (3 h, 5 μM) was 74% and the “percentage of live BMMC cells” value (5 days, 2.5 μM) was 62%. For the same molecule, the “percentage of live BMMC cells” value (5 days, 5 μM) was 56%.
